Article PMC7552967, “Anti-Melanoma Activities of Artemisone and Prenylated Amino-Artemisinins in Combination With Known Anticancer Drugs” (Frontiers in Pharmacology, 2020)

Assays:
[1] = tested on: HaCat normal keratinocytes; assay: Intracellular ROS, DCFH-DA assay, HaCat; assay type: cell-based, human; conditions: 12 h treatment, result in words
Method: HaCat and A375 cells were seeded at 25,000 cells/well in 96-well plates (Black plate, Clear bottom, Corning, Costar®, NY, USA) and incubated until cells were ~90% confluent. Serum-free DMEM without phenol red (Thermo Fisher Scientific, Gibco, Carlsbad, CA, USA) was used for all experiments. Cells were exposed to compounds or H2O2 (500 µM) for 12 h. Cell staining with ROS fluorescent indicator 2’,7’-dichlorodihydrofluorescein diacetate (DCFH-DA) was performed 1.5 h before the end of the 12-h exposure time. A kinetic analysis was then performed at 37°C using a microplate reader (SpectraMax® ParadigmTM Molecular Devices, Sunnyvale, CA, USA) by measuring the DCF fluorescence (excitation 485 nm and emission 535 nm) every 10 min for 1 h. […] The Bradford assay (Coomassie blue colorimetric method) was then performed in order to determine the relative amount of protein per well, as an indication of cell number per well, and all fluorescence measurements were normalized relative to the cell number. The background fluorescence produced by blank medium controls and unstained but treated cell controls were subtracted from DCFH-DA stained cells. The DCF fluorescence measured at the beginning of the analysis (time 0) was subtracted from the DCF fluorescence at the indicated times for the kinetic analysis (results not shown). […]
The levels of intracellular ROS were determined using the DCFH-DA assay. […]

[2] = tested on: HaCat normal keratinocytes; assay: MTT cell viability assay, HaCat; assay type: cell-based, human; conditions: 24 h; for CC50: Homo sapiens, HaCaT, combinations 1:1, mean ± SD, read-out: HaCat IC50
Source text: (§1) The human cell lines TK10 (human kidney adenocarcinoma), UACC62 (human melanoma) and MCF7 (human breast adenocarcinoma) were obtained from the National Cancer Institute (NCI) as part of a panel widely studied for drug screening and molecular target identification. […] The nontumorigenic human immortalized keratinocyte (HaCaT) cells were a kind donation by the School of Anatomical Sciences, Faculty of Health Sciences, University of the Witwatersrand, South Africa. […] All reagents were of analytical grade and were obtained from Merck (Darmstadt, Germany) unless stated otherwise. Cells were cultured in Dulbecco’s modified essential medium (DMEM; Hyclone, GE healthcare, South Logan, UT, USA) containing 10% fetal bovine serum (FBS), 1% penicillin/streptomycin, 1% 200 mM L-Glutamine and 1% nonessential amino acids (Lonza, Basel, Switzerland) at 37°C in a humidified atmosphere of 5% CO2. Stock solutions of the compounds were prepared in dimethyl sulfoxide (DMSO). All subsequent dilutions were prepared in serum-free DMEM and vehicle controls were included in all experiments
(§2) The growth inhibitory effects of the compounds were tested in the 3-cell line panel consisting of TK10 (renal), UACC62 (melanoma) and MCF7 (breast) cancer cells by Sulforhodamine B (SRB) assay. […] Compounds prepared in DMSO were tested at 0.01–100 µM serial dilutions to establish initial inhibitory concentrations. […] After 24 h exposure to compounds, growth medium was removed, cells rinsed twice with 1 ml of phosphate buffered saline (PBS) and 100 µl fresh serum-free medium containing 5 mg/ml MTT solution was added MTT solution was prepared fresh for each analysis). Cells were then incubated for 4 h at 37°C, after which the MTT was removed and substituted with 100 µl dimethyl sulfoxide (DMSO) to dissolve the formazan crystals for an h at 37°C. After incubation, cell viability was determined using a microplate reader (BioTek®, Vermont, USA) at an excitation wavelength of 560 nm and emission wavelength of 630 nm with DMSO measured as a blank. Cell viability was expressed as a percentage relative to the untreated control, which is assumed to be 100% viable. For a positive control, cells were treated with 0.01% Triton-X 100 (Sigma-Aldrich, St Louis, MO, USA) for a period of 4 h. Using the MTT assay data, IC50 values were calculated using GraphPad Prism 8. Data were normalized to the positive (alleged to be 0% viable) and negative controls (presumed to be 100% viable), followed by the log-transformation of the concentration values. […] A crude therapeutic index (fold decrease in IC50 value) was calculated as the IC50 of the noncancerous cell-line/IC50 of the cancerous cell line. […] Drug interactions were evaluated for synergism, additivity or antagonism using multiple drug effect analysis, based on the median-principle. Cells were treated with the drug combinations for 24 h and analyzed. The CompuSyn (ComboSyn, Inc. NJ, USA) software package was used to generate the median-effect plots and combination index plots. […] All experiments were performed at least in triplicate and repeated independently.
(§3) Next, the quantitative colorimetric MTT assay was used to determine in vitro cell viability with A375 (melanoma) and HaCat (nonmalignant keratinocyte) cells. […] The IC50 was used to determine a crude therapeutic index (fold increase or decline in IC50).

[3] = tested on: A375 melanoma cells; assay: LDH release membrane integrity assay, A375; assay type: cell-based, human; conditions: for LDH release, result in words: IC50 concentrations, 24 h (Table 3, Figure 6C); for A375 (% LDH release): compounds at their IC50 concentrations, 24 h, combinations 1:1, relative to maximum release
Source text: (§4) In order to determine cell membrane integrity, the CytoTox-ONE™ Homogeneous Membrane Integrity Assay (Promega, Madison, WO, USA) was employed. This fluorometric assay measures the release of LDH from cells with damaged cell membranes. […] The manufacturer’s instructions were followed to determine the fluorescence at an excitation wavelength of 560 nm and an emission wavelength of 590 nm. In order to calculate the percentage cytotoxicity, the average fluorescent values of the background medium were subtracted from all average fluorescent values of the experimental samples and the positive control. Cytotoxicity is expressed as a percentage relative to the positive control, which is assumed to be responsible for 100% LDH release. The fold increase in LDH release was taken as the indication of the selectivity toward melanoma cell membranes, calculated as the […]. All experiments were performed at least in triplicate and independently repeated. Statistical significant differences were calculated with one-way ANOVA.
(§5) Results are expressed relative to the untreated control and the maximum release sample, which was set as having 0% and 100% LDH release respectively. The LDH released from the nonmalignant HaCat cells and the A375 melanoma cells was then used to deduce the selectivity of the compounds against melanoma cell membranes.

[4] = tested on: HaCat normal keratinocytes; assay: LDH release membrane integrity assay, HaCat; conditions: compounds at their IC50 concentrations, 24 h; combinations 1:1; relative to maximum release
Source text: as §4, §5

[5] = tested on: A375 melanoma cells; assay: MTT cell viability assay, A375; assay type: cell-based, human; conditions: for IC50: MTT, 24 h, combinations 1:1
Source text: as §1, §2, §3

SMILES | Intracellular ROS (DCF fluorescence fold change vs untreated control) [1] | IC50 ([2]; results from elesclomol-Cu(II) reported in nM, combinations 1:1) [nM] | LDH release, result in words [3] | A375 (% LDH release) [3] [%] | Fold increase in LDH release ([3]; selectivity toward melanoma cell membranes, A375 vs HaCat) | HaCat (% LDH release) [4] [%] | Therapeutic index (TI) ([5]; IC50 of HaCat cells/IC50 of A375 cells) | IC50 ([5]; results from elesclomol-Cu(II) reported in nM) [nM] | CC50 [2] [µM] | IC50 ([5]; Homo sapiens, A-375, mean ± SD) [nM]
CN([N-]C(=O)CC(=O)[N-]N(C)C(=[SH+])c1ccccc1)C(=[SH+])c1ccccc1.[Cu] [Elesclomol-Cu(II) 1-Cu, elesclomol-Cu(II)] | no significant increased intracellular ROS | 4.88 ± 0.56 | did not significantly increase the release of LDH | 21 ± 0.94 | 1.3 | 16 ± 0.79 | 2.8 | 1.72 ± 0.23 | – | –
COc1cc([C@@H]2c3cc4c(cc3[C@@H](O[C@@H]3O[C@@H]5CO[C@@H](C)O[C@H]5[C@H](O)[C@H]3O)[C@H]3COC(=O)[C@H]23)OCO4)cc(OC)c1O [Etoposide 9, etoposide] | – | – | did not significantly increase the release of LDH | 11 ± 0.56 | – | 7 ± 0.31 | – | – | > 13000 | 43700 ± 1370
O=C(O)c1cc(/N=N/c2ccc(S(=O)(=O)Nc3ccccn3)cc2)ccc1O [Sulfasalazine 8, sulfasalazine] | – | – | did not significantly increase the release of LDH | 21 ± 0.96 | – | 35 ± 1.02 | – | – | 2223 ± 5.37 | 569800 ± 2950
